Measurements reported in patent publication US8530489B2 (Vertex Pharmaceuticals Incorporated, priority 2006, dated 2013).

Each compound was assayed against PLK1 (Homo sapiens, UniProt P53350) (assay: PLK1 Inhibition Assay I (radioactive-phosphate incorporation)). Conditions: Ki(app); PLK1 Inhibition Assay I or II (table does not say which).
Type: biochemical
Protocol: The compounds of the present invention are evaluated as inhibitors of human PLK kinase using the following assays.
Compounds were screened for their ability to inhibit PLK1 using a radioactive-phosphate incorporation assay. Assays were carried out in a mixture of 25 mM HEPES (pH 7.5), 10 mM MgCl2, and 1 mM DTT. Final substrate concentrations were 350 μM [γ-33P]ATP (136 mCi 33P ATP/mmol ATP, Amersham Pharmacia Biotech/Sigma Chemicals) and 450 μM peptide (KKKISDELMDATFADQEAK) [SEQ. ID:1]. Assays were carried out at 25° C. in the presence of 2 nM PLK1. An assay stock buffer solution was prepared containing all of the reagents listed above, with the exception of ATP and the test compound of interest. 30 μL of the stock solution was placed in a 96 well plate followed by addition of 2 μL of DMSO stock containing serial dilutions of the test compound (typically starting from a final concentration of 10 μM with 2-fold serial dilutions) in duplicate (final DMSO concentration 5%). The plate was pre-incubated for 10 minutes at 25° C. and the reaction initiated by addition of 8 μL [γ-33P]ATP (final concentration 350 μM).
The reaction was stopped after 240 minutes by the addition of 100 μL 0.14M phosphoric acid. A multiscreen phosphocellulose filter 96-well plate (Millipore, Cat No. MAPHN0B50) was pretreated with 100 μL 0.1 M phosphoric acid prior to the addition of 125 μL of the stopped assay mixture. The plate was washed with 4×200 μL 0.1 M phosphoric acid. After drying, 100 μL Optiphase ‘SuperMix’ liquid scintillation cocktail (Perkin Elmer) was added to the well prior to scintillation counting (1450 Microbeta Liquid Scintillation Counter, Wallac).
After removing mean background values for all of the data points, Ki(app) data were calculated from non-linear regression analysis of the initial rate data using the Prism software package (GraphPad Prism version 3.0cx for Macintosh, GraphPad Software, San Diego Calif., USA).

PLK1, sequence (P53350 whole entry): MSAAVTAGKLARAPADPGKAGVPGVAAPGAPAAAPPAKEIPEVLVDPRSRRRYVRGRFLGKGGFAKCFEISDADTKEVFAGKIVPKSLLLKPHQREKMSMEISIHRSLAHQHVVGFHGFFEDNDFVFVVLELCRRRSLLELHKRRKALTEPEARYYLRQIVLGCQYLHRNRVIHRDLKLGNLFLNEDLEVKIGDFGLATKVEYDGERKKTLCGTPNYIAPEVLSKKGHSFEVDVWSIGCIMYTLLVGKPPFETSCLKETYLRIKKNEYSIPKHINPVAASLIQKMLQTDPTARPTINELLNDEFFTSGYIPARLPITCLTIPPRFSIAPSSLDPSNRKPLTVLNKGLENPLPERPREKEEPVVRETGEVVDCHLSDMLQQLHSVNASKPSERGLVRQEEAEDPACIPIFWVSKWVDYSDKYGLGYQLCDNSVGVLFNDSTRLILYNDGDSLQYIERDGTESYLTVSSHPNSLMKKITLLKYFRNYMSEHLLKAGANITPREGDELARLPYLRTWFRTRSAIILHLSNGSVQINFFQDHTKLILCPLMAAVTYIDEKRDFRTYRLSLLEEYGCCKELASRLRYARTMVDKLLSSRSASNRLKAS

Row | Ki [nM] | SMILES
1 | 3 to 40 | C[C@@H](Nc1ncc(C#N)c(-c2c[nH]c3ncc(C(F)(F)F)cc23)n1)C1CCN(C(=O)[C@H](N)CCCN)CC1 [Compound I-252, 2-((R)-1-(1-((R)-2,5-diaminopentanoyl)piperidin-4-yl)ethylamino)-4-(5-(trifluoromethyl)-1H-pyrrolo[2,3-b]pyridin-3-yl)pyrimidine-5-carbonitrile]
2 | < 3 | CCC(Nc1ncc(C#N)c(-c2c[nH]c3ncc(C(F)(F)F)cc23)n1)C1CCN(S(=O)(=O)CC)CC1 (centres unmarked) [Compound I-175, 2-(1-(1-(ethylsulfonyl)piperidin-4-yl)propylamino)-4-(5-(trifluoromethyl)-1H-pyrrolo[2,3-b]pyridin-3-yl)pyrimidine-5-carbonitrile]
3 | 3 to 40 | N#Cc1cnc(Sc2ccccc2)nc1-c1c[nH]c2ncc(C(F)(F)F)cc12 [II-0, 2-(phenylthio)-4-(5-(trifluoromethyl)-1H-pyrrolo[2,3-b]pyridin-3-yl)pyrimidine-5-carbonitrile]
4 | < 3 | C[C@@H](N)C(=O)N1CCC([C@@H](C)Nc2ncc(C#N)c(-c3c[nH]c4ncc(C(F)(F)F)cc34)n2)CC1 [Compound I-225, 2-((R)-1-(1-((R)-2-aminopropanoyl)piperidin-4-yl)ethylamino)-4-(5-(trifluoromethyl)-1H-pyrrolo[2,3-b]pyridin-3-yl)pyrimidine-5-carbonitrile]
5 | 3 to 40 | CC(C)Nc1ncc(C#N)c(-c2c[nH]c3ncc(C(F)(F)F)cc23)n1 [Compound I-3, 2-(isopropylamino)-4-(5-(trifluoromethyl)-1H-pyrrolo[2,3-b]pyridin-3-yl)pyrimidine-5-carbonitrile]
6 | < 3 | C[C@@H](Nc1ncc(C#N)c(-c2c[nH]c3ncc(C(F)(F)F)cc23)n1)c1ccc(O[C@@H]2CCN(C)C2)nc1 [Compound I-300, 2-(I-1-(6-(I-1-methylpyrrolidin-3-yloxy)pyridin-3-yl)ethylamino)-4-(5-(trifluoromethyl)-1H-pyrrolo[2,3-b]pyridin-3-yl)pyrimidine-5-carbonitrile]
7 | > 40 | C[C@@H](Nc1ncc(C#N)c(-c2c[nH]c3ncc(C(F)(F)F)cc23)n1)[C@H]1CC[C@@H](N2CCN(C)CC2)CC1 [Compound I-245, 2-((R)-1-((1s,4S)-4-(4-methylpiperazin-1-yl)cyclohexyl)ethylamino)-4-(5-(trifluoromethyl)-1H-pyrrolo[2,3-b]pyridin-3-yl)pyrimidine-5-carbonitrile]
8 | < 3 | C[C@@H](Nc1ncc(C#N)c(-c2c[nH]c3ncc(C(F)(F)F)cc23)n1)[C@H]1CC[C@@H](O)CC1 [Compound I-180, 2-((R)-1-((1s,4S)-4-hydroxycyclohexyl)ethylamino)-4-(5-(trifluoromethyl)-1H-pyrrolo[2,3-b]pyridin-3-yl)pyrimidine-5-carbonitrile]
9 | 3 to 40 | C[C@H](O)[C@@H](CO)Nc1ncc(C#N)c(-c2c[nH]c3ncc(C(F)(F)F)cc23)n1 [Compound I-108, 2-((2R,3S)-1,3-dihydroxybutan-2-ylamino)-4-(5-(trifluoromethyl)-1H-pyrrolo[2,3-b]pyridin-3-yl)pyrimidine-5-carbonitrile]
10 | 3 to 40 | N#Cc1cnc(NCc2ccc(-n3cncn3)cc2)nc1-c1c[nH]c2ncc(C(F)(F)F)cc12 [Compound I-55, 2-(4-(1H-1,2,4-triazol-1-yl)benzylamino)-4-(5-(trifluoromethyl)-1H-pyrrolo[2,3-b]pyridin-3-yl)pyrimidine-5-carbonitrile]
11 | 3 to 40 | C[C@@H](Nc1ncc(C#N)c(-c2c[nH]c3ncc(C(F)(F)F)cc23)n1)c1ccc(N2CC[C@H](N3CCCC3)C2)nc1 [Compound I-288, 2-((R)-1-(6-((S)-1,3′-bipyrrolidin-1′-yl)pyridin-3-yl)ethylamino)-4-(5-(trifluoromethyl)-1H-pyrrolo[2,3-b]pyridin-3-yl)pyrimidine-5-carbonitrile]
